Measured values reported in patent US20250179047A1, “5-[7-(3,4-DIHYDRO-1H-ISOQUINOLINE-2-CARBONYL)-1,2,3,4 TETRAHYDROISOQUINOLIN-6-YL]-1H-PYRROLE-3-CARBOXAMIDE DERIVATIVES, PHARMACEUTICAL COMPOSITIONS CONTAINING THEM AND THEIR USES AS PRO-APOPTOTIC AGENTS” (LES LABORATOIRES SERVIER, priority 2022, published 2025).
pKi: −log10 of the molar value.

How the values were obtained:
KMS-12-PE Bcl-2 WT = assay: In vitro cytotoxicity CellTiter-Glo 48 h, KMS-12-PE Bcl-2 WT; assay type: cell-based; settings: Homo sapiens, KMS-12-PE, C50 = concentration needed to reach 50% of the cellular viability
Outline: (§1)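 CTG luminescence read-out; C50 = concentration reaching 50% cellular viability. Cells: KMS-12-PE expressing Bcl-2 WT or G101V (lentiviral, TagRFP-sorted). 11-pt curve, 48 h, 37 °C/5% CO2.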

BCL2 G101V [1] = target: BCL2 G101V (Homo sapiens, UniProt P10415, G101V); assay: TR-FRET competitive binding assay, BCL2 G101V; settings: BCL2 G101V; Ki determined from IC50; read-out: TR_FRET EKI_Bcl2 G101V
Outline: (§2)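 Competitive TR-FRET displacement of fluorescein-PUMA peptide (2 or 20 nM) from 0.5 nM terbium-labelled N-terminal Halo-fusion BCL2 (1-207, wild type or mutant) or BCLXL (2-196), expressed in E. coli. Buffer 50 mM Hepes pH 7.5, 150 mM NaCl, 5% DMSO; 2 h at 23°C. 520/495 nm ratio fitted over 11 points for IC50, converted to Ki.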

BCL2 G101V [2] = assay: TR-FRET competitive binding assay, BCL2 G101V; design: species or system human; settings: ratio Ki BCL2 G101V / Ki BCL2 WT
Outline: as §2

BCL2 WT = BCL2 WT (Homo sapiens (Human), UniProt P10415); assay: TR-FRET competitive binding assay, BCL2 WT; settings: Ki determined from IC50, read-out: TR_FRET EKI_Bcl2 WT
Outline: as §2

BCL2 D103Y = BCL2 D103Y (Homo sapiens, UniProt P10415, D103Y); assay: TR-FRET competitive binding assay, BCL2 D103Y; settings: Ki determined from IC50, read-out: TR_FRET EKI_Bcl2 D103Y
Outline: as §2

KMS-12-PE Bcl-2 G101V = assay: In vitro cytotoxicity CellTiter-Glo 48 h, KMS-12-PE Bcl-2 G101V; assay type: cell-based; settings: for Ratio (G101V/WT): C50 KMS-12-PE Bcl-2 G101V over C50 KMS-12-PE Bcl-2 WT; for IC50: Homo sapiens, KMS-12-PE, 48 h, CellTiter-Glo, C50 = concentration needed to reach 50% of the cellular viability
Outline: as §1

BCLXL WT = BCLXL WT (Homo sapiens (Human), UniProt Q07817); assay: TR-FRET competitive binding assay, BCLXL WT; settings: for pKi: BCLXL WT, Ki determined from IC50, read-out: TR_FRET EKI BclxL; for TR_FRET EKI BCLxL/WT selectivty ratio: ratio Ki BCLxL / Ki BCL2 WT
BCLXL WT, sequence (Q07817 other isoform, or with tags, fused parts or gaps): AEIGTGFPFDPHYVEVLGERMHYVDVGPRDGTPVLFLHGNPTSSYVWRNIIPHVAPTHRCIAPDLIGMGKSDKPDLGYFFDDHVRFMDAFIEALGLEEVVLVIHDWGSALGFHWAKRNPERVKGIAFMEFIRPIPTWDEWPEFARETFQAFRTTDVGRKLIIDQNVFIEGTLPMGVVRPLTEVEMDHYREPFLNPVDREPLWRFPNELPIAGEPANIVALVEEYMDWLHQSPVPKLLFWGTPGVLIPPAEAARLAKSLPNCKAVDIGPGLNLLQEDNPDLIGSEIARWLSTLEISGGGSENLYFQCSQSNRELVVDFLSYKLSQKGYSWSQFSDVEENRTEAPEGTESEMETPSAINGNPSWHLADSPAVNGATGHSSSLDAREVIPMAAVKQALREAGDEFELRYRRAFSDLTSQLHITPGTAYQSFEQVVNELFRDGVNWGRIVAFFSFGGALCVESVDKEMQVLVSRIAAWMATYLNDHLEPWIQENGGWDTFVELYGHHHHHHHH
Outline: as §2

| pKi (BCL2 G101V [1]) | TR_FRET EKI G101V/WT selectivty ratio (BCL2 G101V [2]) | pKi (BCL2 WT) | pKi (BCL2 D103Y) | pKi (BCLXL WT) | TR_FRET EKI BCLxL/WT selectivty ratio (BCLXL WT) | Compound | IC50 (KMS-12-PE Bcl-2 WT) [µM] | Ratio (G101V/WT) (KMS-12-PE Bcl-2 G101V) | IC50 (KMS-12-PE Bcl-2 G101V) [µM] |
| --- | --- | --- | --- | --- | --- | --- | --- | --- | --- |
| 9.70 | 3.9 | 10.30 | 10.00 | 8.37 | 84.3 | COc1cc(OCCN2CCOCC2)ccc1CC(=O)N1CCc2cc(-c3cc(C(=O)N(c4ccc(O)cc4)c4cc(C#N)n(C)c4C)c(C)n3C)c(C(=O)N3Cc4ccccc4C[C@H]3CN3CCCCC3)cc2C1 [Example 114, N-(5-cyano-1,2-dimethyl-1H-pyrrol-3-yl)-N-(4-hydroxyphenyl)-5-[2-(2-{2-methoxy-4-[2-(morpholin-4-yl)ethoxy]phenyl}acetyl)-7-[(3S)-3-[(piperidin-1-yl)methyl]-1,2,3,4-tetrahydroisoquinoline-2-carbonyl]-1,2,3,4-tetrahydroisoquinolin-6-yl]-1,2-dimethyl-1H-pyrrole-3-carboxamide] | 0.0099 | 6.09 | 0.0602 |
| 9.40 | 4.6 | 10.05 | 9.44 | 8.92 | 12.8 | CCOC[C@@H]1Cc2ccccc2CN1C(=O)c1cc2c(cc1-c1cc(C(=O)N(c3ccc(O)cc3)c3cc(C#N)n(C)c3C)c(C)n1C)CCN(C(=O)Cc1ccc(OCCN3CCOCC3)cc1F)C2 [Example 169, N-(5-cyano-1,2-dimethyl-pyrrol-3-yl)-5-[7-[(3S)-3-(ethoxymethyl)-3,4-dihydro-1H-isoquinoline-2-carbonyl]-2-[2-[2-fluoro-4-(2-morpholinoethoxy)phenyl]acetyl]-3,4-dihydro-1H-isoquinolin-6-yl]-N-(4-hydroxyphenyl)-1,2-dimethyl-pyrrole-3-carboxamide] | 0.0049 | 5.082 | 0.0248 |
| 9.52 | 5.8 | 10.40 | 9.80 | 8.57 | 62.8 | Cc1c(N(C(=O)c2cc(-c3cc4c(cc3C(=O)N3Cc5ccccc5C[C@H]3CN3CCCCC3)CN(C(=O)Cc3ccc(OCCN5CCOC[C@H]5C)cc3F)CC4)n(C)c2C)c2ccc(O)cc2)cc(C#N)n1C [Example 166, N-(5-cyano-1,2-dimethylpyrrol-3-yl)-5-{2-[2-(2-fluoro-4-{2-[(3R)-3-methylmorpholin-4-yl]ethoxy}phenyl)acetyl]-7-{[(3S)-3-(piperidin-1-ylmethyl)-3,4-dihydro-1H-isoquinolin-2-yl]carbonyl}-3,4-dihydro-1H-isoquinolin-6-yl}-N-(4-hydroxyphenyl)-1,2-dimethylpyrrole-3-carboxamide] | 0.0045 | 6.5639 | 0.0298 |
| 8.96 | 3.3 | 9.49 | 9.41 | 8.01 | 30.6 | Cc1c(C(=O)N(c2ccc(O)cc2)c2cnn(C)c2)cc(-c2cc3c(cc2C(=O)N2Cc4ccccc4C[C@H]2C)CN(C(=O)Cc2ccc(OCCC4CCOCC4)cc2)CC3)n1C [Example 85, N-(4-hydroxyphenyl)-1,2-dimethyl-5-(7-{[(3R)-3-methyl-3,4-dihydro-1H-isoquinolin-2-yl]carbonyl}-2-(2-{4-[2-(oxan-4-yl)ethoxy]phenyl}acetyl)-3,4-dihydro-1H-isoquinolin-6-yl)-N-(1-methylpyrazol-4-yl)pyrrole-3-carboxamide] | 0.0061 | 8.42 | 0.051 |
| 8.89 | 3.8 | 9.47 | 9.26 | 8.32 | 14.1 | Cc1c(N(C(=O)c2cc(-c3cc4c(cc3C(=O)N3Cc5ccccc5C[C@H]3C)CN(C(=O)Cc3ccc(F)cc3F)CC4)n(C)c2C)c2ccc(O)cc2)cc(C#N)n1C [Example 11, N-(5-cyano-1,2-dimethyl-1H-pyrrol-3-yl)-5-{2-[2-(2,4-difluorophenyl)acetyl]-7-[(3R)-3-methyl-1,2,3,4-tetrahydroisoquinoline-2-carbonyl]-1,2,3,4-tetrahydroisoquinolin-6-yl}-N-(4-hydroxyphenyl)-1,2-dimethyl-1H-pyrrole-3-carboxamide] | 0.0035 | 7.05 | 0.0249 |
| 9.22 | 3.2 | 9.74 | 9.34 | 8.41 | 21.7 | Cc1c(C(=O)N(c2ccc(O)cc2)c2cc(C#N)n(C(F)F)c2C)cc(-c2cc3c(cc2C(=O)N2Cc4ccccc4C[C@H]2C)CN(C(=O)Cc2ccc(OCCN4CCOCC4)cc2)CC3)n1C [Example 95, N-[5-cyano-1-(difluoromethyl)-2-methylpyrrol-3-yl]-N-(4-hydroxyphenyl)-1,2-dimethyl-5-(7-{[(3R)-3-methyl-3,4-dihydro-1H-isoquinolin-2-yl]carbonyl}-2-(2-{4-[2-(morpholin-4-yl)ethoxy]phenyl}acetyl)-3,4-dihydro-1H-isoquinolin-6-yl)pyrrole-3-carboxamide] | 0.0048 | 4.11 | 0.0196 |
| 9.10 | 5.5 | 9.82 | 9.62 | 7.84 | 96.0 | Cc1c(C(=O)N(c2ccc(O)cc2)c2cc(C#N)n(C(F)F)c2C)cc(-c2cc3c(cc2C(=O)N2Cc4ccccc4C[C@H]2CN2CCCCC2)CN(C(=O)Cc2ccc(OCCN4C[C@@H](C)O[C@@H](C)C4)cc2)CC3)n1C [Example 129, N-[5-cyano-1-(difluoromethyl)-2-methylpyrrol-3-yl]-5-{2-[2-(4-{2-[cis-2,6-dimethylmorpholin-4-yl]ethoxy}phenyl)acetyl]-7-{[(3S)-3-(piperidin-1-ylmethyl)-3,4-dihydro-1H-isoquinolin-2-yl]carbonyl}-3,4-dihydro-1H-isoquinolin-6-yl}-N-(4-hydroxyphenyl)-1,2-dimethylpyrrole-3-carboxamide] | 0.014 | 4.5143 | 0.0632 |
| 8.24 | 2.6 | 8.66 | 8.53 | 7.51 | 14.2 | Cc1c(N(C(=O)c2cc(-c3cc4c(cc3C(=O)N3Cc5ccccc5C[C@H]3C)CN(C(=O)Cc3ccc(Oc5ccccc5)cc3)CC4)n(C)c2C)c2ccc(O)cc2)cc(C#N)n1C [Example 10, N-(5-cyano-1,2-dimethyl-1H-pyrrol-3-yl)-N-(4-hydroxyphenyl)-1,2-dimethyl-5-{7-[(3R)-3-methyl-1,2,3,4-tetrahydroisoquinoline-2-carbonyl]-2-[2-(4-phenoxyphenyl)acetyl]-1,2,3,4-tetrahydroisoquinolin-6-yl}-1H-pyrrole-3-carboxamide] | 0.014 | 4.58 | 0.0641 |
